Laboratory results reported in article PMC3933419, “Synthesis and Properties of a Selective Inhibitor of Homeodomain–Interacting Protein Kinase 2 (HIPK2)” (PLoS ONE, 2014).

Tests used:
Test in all cases: Kinase panel selectivity profiling
Assay type in all cases: biochemical
[1] = target: ASK1 (Homo sapiens, UniProt Q99683); details: TBID 1 μM, 125 kinase panel, read-out: % activity of the enzyme
Description: (§1) The source of HIPK2 and of all of the other protein kinases used for specificity assays is as described elsewhere.
(§2) Conditions for the activity assays of all other protein kinases tested in selectivity experiments are as described or referenced in [9].

[2] = target: BRK (Homo sapiens, UniProt Q13882); details: TBID 1 μM, 125 kinase panel, read-out: % activity of the enzyme
Description: as §1, §2

[3] = target: CAMKKb (Homo sapiens, UniProt Q96RR4)
Description: as §1, §2

[4] = target: CHK1 (Homo sapiens, UniProt O14757); details: TBID 1 μM, 125 kinase panel, read-out: % activity of the enzyme
Description: as §1, §2

[5] = target: CHK2 (Homo sapiens, UniProt O96017); details: TBID 1 μM, 125 kinase panel, read-out: % activity of the enzyme
Description: as §1, §2

[6] = target: CSK (Homo sapiens, UniProt P41240); details: TBID 1 μM, 125 kinase panel, read-out: % activity of the enzyme
Description: as §1, §2

[7] = target: DYRK1A (Homo sapiens, UniProt Q13627)
Description: as §1, §2

[8] = target: EF2K (Homo sapiens, UniProt O00418); details: TBID 1 μM, 125 kinase panel, read-out: % activity of the enzyme
Description: as §1, §2

[9] = target: EIF2AK3 (Homo sapiens, UniProt Q9NZJ5); details: TBID 1 μM, 125 kinase panel, read-out: % activity of the enzyme
Description: as §1, §2

[10] = target: EPH-A2 (Homo sapiens, UniProt P29317); details: TBID 1 μM, 125 kinase panel, read-out: % activity of the enzyme
Description: as §1, §2

[11] = target: EPH-A4 (Homo sapiens, UniProt P54764); details: TBID 1 μM, 125 kinase panel, read-out: % activity of the enzyme
Description: as §1, §2

[12] = target: EPH-B1 (Homo sapiens, UniProt P54762); details: TBID 1 μM, 125 kinase panel, read-out: % activity of the enzyme
Description: as §1, §2

[13] = target: EPH-B4 (Homo sapiens, UniProt P54760); details: TBID 1 μM, 125 kinase panel, read-out: % activity of the enzyme
Description: as §1, §2

[14] = target: ERK8 (Homo sapiens, UniProt Q8TD08); details: TBID 1 μM, 125 kinase panel, read-out: % activity of the enzyme
Description: as §1, §2

[15] = target: FGF-R1 (Homo sapiens, UniProt P11362); details: TBID 1 μM, 125 kinase panel, read-out: % activity of the enzyme
Description: as §1, §2

[16] = target: GSK3b (Homo sapiens, UniProt P49841); details: TBID 1 μM, 125 kinase panel, read-out: % activity of the enzyme
Description: as §1, §2

[17] = target: T1, HIPK2 (Homo sapiens, UniProt Q9H2X6)
T1 construct: The source of HIPK2 and of all of the other protein kinases used for specificity assays is as described elsewhere
Description: as §1, §2

[18] = target: IRAK1 (Homo sapiens, UniProt P51617); details: TBID 1 μM, 125 kinase panel, read-out: % activity of the enzyme
Description: as §1, §2

[19] = target: IRR (Homo sapiens, UniProt P14616); details: TBID 1 μM, 125 kinase panel, read-out: % activity of the enzyme
Description: as §1, §2

[20] = target: JAK2 (Homo sapiens, UniProt O60674); details: TBID 1 μM, 125 kinase panel, read-out: % activity of the enzyme
Description: as §1, §2

[21] = target: JNK2 (Homo sapiens, UniProt P45984); details: TBID 1 μM, 125 kinase panel, read-out: % activity of the enzyme
Description: as §1, §2

[22] = target: Lck (Homo sapiens, UniProt P06239); details: TBID 1 μM, 125 kinase panel, read-out: % activity of the enzyme
Description: as §1, §2

[23] = target: MAPKAP-K2 (Homo sapiens, UniProt P49137); details: TBID 1 μM, 125 kinase panel, read-out: % activity of the enzyme
Description: as §1, §2

[24] = target: MARK4 (Homo sapiens, UniProt Q96L34); details: TBID 1 μM, 125 kinase panel, read-out: % activity of the enzyme
Description: as §1, §2

[25] = target: MEKK1 (Homo sapiens, UniProt Q13233); details: TBID 1 μM, 125 kinase panel, read-out: % activity of the enzyme
Description: as §1, §2

[26] = target: MKK6 (Homo sapiens, UniProt P52564); details: TBID 1 μM, 125 kinase panel, read-out: % activity of the enzyme
Description: as §1, §2

[27] = target: MLK1 (Homo sapiens, UniProt P80192); details: TBID 1 μM, 125 kinase panel, read-out: % activity of the enzyme
Description: as §1, §2

[28] = target: MST2 (Homo sapiens, UniProt Q13188); details: TBID 1 μM, 125 kinase panel, read-out: % activity of the enzyme
Description: as §1, §2

[29] = target: PAK2 (Homo sapiens, UniProt Q13177); details: TBID 1 μM, 125 kinase panel, read-out: % activity of the enzyme
Description: as §1, §2

[30] = target: PAK6 (Homo sapiens, UniProt Q9NQU5); details: TBID 1 μM, 125 kinase panel, read-out: % activity of the enzyme
Description: as §1, §2

[31] = target: PHK (Homo sapiens, UniProt Q16816); details: TBID 1 μM, 125 kinase panel, read-out: % activity of the enzyme
Description: as §1, §2

[32] = target: PIM2 (Homo sapiens, UniProt Q9P1W9); details: TBID 1 μM, 125 kinase panel, read-out: % activity of the enzyme
Description: as §1, §2

[33] = target: PKA (Homo sapiens, UniProt P17612); details: TBID 1 μM, 125 kinase panel, read-out: % activity of the enzyme
Description: as §1, §2

[34] = target: PKCz (Homo sapiens, UniProt Q05513); details: TBID 1 μM, 125 kinase panel, read-out: % activity of the enzyme
Description: as §1, §2

[35] = target: PKCγ (Homo sapiens, UniProt P05129); details: TBID 1 μM, 125 kinase panel, read-out: % activity of the enzyme
Description: as §1, §2

[36] = target: PKD1 (Homo sapiens, UniProt Q15139); details: TBID 1 μM, 125 kinase panel, read-out: % activity of the enzyme
Description: as §1, §2

[37] = target: PRK2 (Homo sapiens, UniProt Q16513); details: TBID 1 μM, 125 kinase panel, read-out: % activity of the enzyme
Description: as §1, §2

[38] = target: RSK2 (Homo sapiens, UniProt P51812); details: TBID 1 μM, 125 kinase panel, read-out: % activity of the enzyme
Description: as §1, §2

[39] = target: TTBK1 (Homo sapiens, UniProt Q5TCY1); details: TBID 1 μM, 125 kinase panel, read-out: % activity of the enzyme
Description: as §1, §2

[40] = target: TrkA (Homo sapiens, UniProt P04629); details: TBID 1 μM, 125 kinase panel, read-out: % activity of the enzyme
Description: as §1, §2

[41] = target: YES1 (Homo sapiens, UniProt P07947); details: TBID 1 μM, 125 kinase panel, read-out: % activity of the enzyme
Description: as §1, §2

[42] = 10 µM TBID, panel of 76 protein kinases, read-out: residual activity
[43] = TBID 1 μM, 125 kinase panel, read-out: % activity of the enzyme

T1 sequence (Q9H2X6 whole entry): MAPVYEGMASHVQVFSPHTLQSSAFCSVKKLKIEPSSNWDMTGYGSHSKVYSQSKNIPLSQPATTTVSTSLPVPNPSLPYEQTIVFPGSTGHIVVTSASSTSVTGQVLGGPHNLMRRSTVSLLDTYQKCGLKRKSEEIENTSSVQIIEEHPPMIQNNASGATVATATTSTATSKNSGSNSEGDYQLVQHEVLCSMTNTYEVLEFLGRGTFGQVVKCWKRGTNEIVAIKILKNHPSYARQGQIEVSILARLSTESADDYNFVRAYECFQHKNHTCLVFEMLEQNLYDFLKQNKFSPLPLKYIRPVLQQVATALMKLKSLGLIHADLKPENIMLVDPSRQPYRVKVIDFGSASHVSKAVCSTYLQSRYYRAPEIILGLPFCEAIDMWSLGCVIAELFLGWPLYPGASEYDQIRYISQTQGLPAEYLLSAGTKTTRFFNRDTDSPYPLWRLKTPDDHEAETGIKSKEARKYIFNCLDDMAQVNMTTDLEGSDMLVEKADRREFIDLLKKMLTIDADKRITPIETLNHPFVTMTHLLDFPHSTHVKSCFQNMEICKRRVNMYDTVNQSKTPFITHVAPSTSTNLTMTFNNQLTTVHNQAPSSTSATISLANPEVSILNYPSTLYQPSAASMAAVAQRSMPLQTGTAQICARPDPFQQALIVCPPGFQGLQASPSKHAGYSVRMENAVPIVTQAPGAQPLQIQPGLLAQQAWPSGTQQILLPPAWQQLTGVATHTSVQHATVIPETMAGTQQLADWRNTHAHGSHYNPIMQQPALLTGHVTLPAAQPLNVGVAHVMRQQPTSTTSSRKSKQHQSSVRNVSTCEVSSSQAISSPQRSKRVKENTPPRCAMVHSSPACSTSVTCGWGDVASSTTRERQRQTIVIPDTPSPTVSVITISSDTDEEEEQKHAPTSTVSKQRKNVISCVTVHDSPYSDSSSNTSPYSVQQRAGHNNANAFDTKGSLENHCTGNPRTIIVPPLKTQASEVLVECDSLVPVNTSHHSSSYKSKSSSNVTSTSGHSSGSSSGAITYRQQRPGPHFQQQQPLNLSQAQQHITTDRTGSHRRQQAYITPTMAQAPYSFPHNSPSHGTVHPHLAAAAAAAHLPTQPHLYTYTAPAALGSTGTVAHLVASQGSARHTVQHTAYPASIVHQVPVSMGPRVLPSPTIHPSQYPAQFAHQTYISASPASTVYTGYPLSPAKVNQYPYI
CAMKKb, sequence (Q96RR4 whole entry): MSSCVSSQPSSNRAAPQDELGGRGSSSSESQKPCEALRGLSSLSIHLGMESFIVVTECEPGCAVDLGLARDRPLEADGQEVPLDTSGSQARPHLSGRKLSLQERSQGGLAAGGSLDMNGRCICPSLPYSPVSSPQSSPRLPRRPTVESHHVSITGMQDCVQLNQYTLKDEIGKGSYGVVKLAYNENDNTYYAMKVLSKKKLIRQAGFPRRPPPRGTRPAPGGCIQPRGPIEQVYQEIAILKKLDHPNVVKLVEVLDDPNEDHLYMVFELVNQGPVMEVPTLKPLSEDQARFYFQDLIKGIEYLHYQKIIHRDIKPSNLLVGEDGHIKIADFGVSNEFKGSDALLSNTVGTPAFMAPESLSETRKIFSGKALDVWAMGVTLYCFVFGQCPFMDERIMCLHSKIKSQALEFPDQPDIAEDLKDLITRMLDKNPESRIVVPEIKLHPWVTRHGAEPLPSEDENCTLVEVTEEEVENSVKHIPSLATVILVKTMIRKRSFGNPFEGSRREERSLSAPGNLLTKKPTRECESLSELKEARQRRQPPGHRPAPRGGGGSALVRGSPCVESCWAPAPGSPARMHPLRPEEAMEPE
EF2K, sequence (O00418 whole entry): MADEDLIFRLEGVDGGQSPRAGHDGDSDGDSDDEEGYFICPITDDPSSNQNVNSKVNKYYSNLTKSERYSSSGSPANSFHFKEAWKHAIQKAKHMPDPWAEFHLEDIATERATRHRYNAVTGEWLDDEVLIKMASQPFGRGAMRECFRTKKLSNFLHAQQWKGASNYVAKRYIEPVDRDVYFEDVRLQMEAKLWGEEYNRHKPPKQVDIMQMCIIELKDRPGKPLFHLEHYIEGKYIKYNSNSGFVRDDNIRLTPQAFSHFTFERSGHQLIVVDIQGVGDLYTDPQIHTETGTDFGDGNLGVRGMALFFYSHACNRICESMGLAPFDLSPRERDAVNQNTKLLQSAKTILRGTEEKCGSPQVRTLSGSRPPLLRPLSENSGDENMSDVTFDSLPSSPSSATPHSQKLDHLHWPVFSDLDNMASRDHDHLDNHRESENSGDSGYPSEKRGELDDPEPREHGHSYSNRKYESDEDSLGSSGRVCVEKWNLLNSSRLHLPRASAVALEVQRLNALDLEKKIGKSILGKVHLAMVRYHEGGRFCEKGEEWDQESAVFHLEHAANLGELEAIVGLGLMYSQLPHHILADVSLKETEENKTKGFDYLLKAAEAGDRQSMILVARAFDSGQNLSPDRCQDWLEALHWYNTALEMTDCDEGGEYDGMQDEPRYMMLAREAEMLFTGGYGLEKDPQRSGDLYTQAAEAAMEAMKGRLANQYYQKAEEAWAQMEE
JAK2, sequence (O60674 whole entry): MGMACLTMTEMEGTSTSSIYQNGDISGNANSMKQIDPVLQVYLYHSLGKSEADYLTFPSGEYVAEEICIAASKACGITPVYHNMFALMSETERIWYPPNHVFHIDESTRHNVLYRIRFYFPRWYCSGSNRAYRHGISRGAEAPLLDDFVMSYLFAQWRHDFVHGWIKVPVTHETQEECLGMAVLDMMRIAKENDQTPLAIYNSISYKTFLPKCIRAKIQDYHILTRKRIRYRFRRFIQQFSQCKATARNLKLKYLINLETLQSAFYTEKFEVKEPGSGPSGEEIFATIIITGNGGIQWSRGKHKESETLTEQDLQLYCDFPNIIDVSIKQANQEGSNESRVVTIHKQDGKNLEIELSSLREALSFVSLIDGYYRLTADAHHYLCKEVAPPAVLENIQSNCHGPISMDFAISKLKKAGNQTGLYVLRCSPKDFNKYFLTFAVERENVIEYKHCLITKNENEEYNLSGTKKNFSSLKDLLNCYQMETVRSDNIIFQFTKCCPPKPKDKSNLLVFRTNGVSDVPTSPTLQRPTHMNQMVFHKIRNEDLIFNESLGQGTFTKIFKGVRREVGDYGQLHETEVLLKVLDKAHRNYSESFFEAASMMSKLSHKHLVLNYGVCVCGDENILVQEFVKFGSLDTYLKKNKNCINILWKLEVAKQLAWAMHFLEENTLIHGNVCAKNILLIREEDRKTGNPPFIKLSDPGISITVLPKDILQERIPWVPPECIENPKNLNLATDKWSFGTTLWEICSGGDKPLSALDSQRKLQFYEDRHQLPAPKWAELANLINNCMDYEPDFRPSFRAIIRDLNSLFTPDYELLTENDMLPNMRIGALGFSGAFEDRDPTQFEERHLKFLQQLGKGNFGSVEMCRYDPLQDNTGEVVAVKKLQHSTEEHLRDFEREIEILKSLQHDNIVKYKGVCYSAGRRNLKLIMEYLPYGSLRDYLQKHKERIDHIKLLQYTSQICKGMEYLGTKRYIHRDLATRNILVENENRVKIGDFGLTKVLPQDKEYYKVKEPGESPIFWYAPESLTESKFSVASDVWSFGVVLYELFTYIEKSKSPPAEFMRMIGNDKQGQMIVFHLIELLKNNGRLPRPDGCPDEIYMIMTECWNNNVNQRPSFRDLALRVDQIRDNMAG
IRR, sequence (P14616 27-1297): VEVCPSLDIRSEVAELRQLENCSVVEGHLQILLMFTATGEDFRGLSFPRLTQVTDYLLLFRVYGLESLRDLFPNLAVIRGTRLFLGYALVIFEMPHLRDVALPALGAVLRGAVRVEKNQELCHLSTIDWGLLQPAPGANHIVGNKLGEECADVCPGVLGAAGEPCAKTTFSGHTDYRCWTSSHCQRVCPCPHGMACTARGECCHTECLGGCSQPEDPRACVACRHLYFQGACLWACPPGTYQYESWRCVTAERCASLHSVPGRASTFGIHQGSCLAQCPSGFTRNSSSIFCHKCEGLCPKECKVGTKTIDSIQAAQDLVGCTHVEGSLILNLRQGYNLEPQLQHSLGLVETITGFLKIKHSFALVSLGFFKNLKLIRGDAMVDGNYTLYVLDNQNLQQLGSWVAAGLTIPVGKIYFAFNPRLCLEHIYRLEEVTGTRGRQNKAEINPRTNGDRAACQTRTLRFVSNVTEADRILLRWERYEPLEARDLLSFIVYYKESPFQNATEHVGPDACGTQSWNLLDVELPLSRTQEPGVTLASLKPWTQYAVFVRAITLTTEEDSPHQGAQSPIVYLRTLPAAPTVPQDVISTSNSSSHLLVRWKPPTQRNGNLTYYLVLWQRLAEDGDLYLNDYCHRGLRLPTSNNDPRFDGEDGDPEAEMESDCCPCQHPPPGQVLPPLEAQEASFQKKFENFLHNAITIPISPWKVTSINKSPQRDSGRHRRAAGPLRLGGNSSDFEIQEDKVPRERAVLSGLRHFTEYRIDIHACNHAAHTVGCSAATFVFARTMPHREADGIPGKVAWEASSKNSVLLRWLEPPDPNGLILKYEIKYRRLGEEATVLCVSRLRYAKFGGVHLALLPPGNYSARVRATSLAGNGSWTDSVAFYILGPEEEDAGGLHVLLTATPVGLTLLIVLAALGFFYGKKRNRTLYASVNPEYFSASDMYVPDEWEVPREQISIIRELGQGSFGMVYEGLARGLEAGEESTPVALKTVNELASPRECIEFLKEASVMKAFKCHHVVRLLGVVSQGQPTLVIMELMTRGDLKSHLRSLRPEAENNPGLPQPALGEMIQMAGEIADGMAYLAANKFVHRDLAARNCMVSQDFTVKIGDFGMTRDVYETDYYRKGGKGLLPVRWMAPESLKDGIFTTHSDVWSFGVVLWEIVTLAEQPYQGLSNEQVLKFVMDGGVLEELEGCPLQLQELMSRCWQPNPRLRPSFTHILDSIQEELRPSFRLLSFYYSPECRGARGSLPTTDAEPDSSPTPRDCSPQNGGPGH

**Q.** How did the activity at 1 µM [1] turn out when `O=C1c2c(Br)c(Br)c(Br)c(Br)c2C(=O)N1c1ncc[nH]1` [TBID, 4,5,6,7-Tetrabromo-2-(1H-imidazol-2-yl)isoindoline-1,3-dione] was run?
**A.** Its activity at 1 µM is 126%.

**Q.** What about the activity at 1 µM [2] of the same molecule?
**A.** The activity at 1 µM was 103%.

**Q.** What about the remaining activity at 10 µM [3, 42] of the same molecule?
**A.** The remaining activity at 10 µM was 34%.

**Q.** What about the activity at 1 µM [3, 43] of the same molecule?
**A.** Its activity at 1 µM is 75%.

**Q.** What about the activity at 1 µM [4] of the same molecule?
**A.** Its activity at 1 µM is 102%.

**Q.** What about the activity at 1 µM [5] of the same molecule?
**A.** Its activity at 1 µM is 100%.

**Q.** And the activity at 1 µM [6]?
**A.** The activity at 1 µM was 89%.

**Q.** And the remaining activity at 10 µM [7, 42]?
**A.** Its remaining activity at 10 µM is 72%.

**Q.** And the activity at 1 µM [7, 43]?
**A.** Its activity at 1 µM is 104%.

**Q.** And the activity at 1 µM [8]?
**A.** The activity at 1 µM was 111%.

**Q.** And the activity at 1 µM [9]?
**A.** Its activity at 1 µM is 107%.

**Q.** And the activity at 1 µM [10]?
**A.** Its activity at 1 µM is 89%.

**Q.** And the activity at 1 µM [11]?
**A.** The activity at 1 µM was 100%.

**Q.** What about the activity at 1 µM [12] of the same molecule?
**A.** The activity at 1 µM was 96%.

**Q.** And the activity at 1 µM [13]?
**A.** The activity at 1 µM was 114%.

**Q.** And the activity at 1 µM [14]?
**A.** Its activity at 1 µM is 95%.

**Q.** And the activity at 1 µM [15]?
**A.** Its activity at 1 µM is 104%.

**Q.** What about the activity at 1 µM [16] of the same molecule?
**A.** Its activity at 1 µM is 94%.

**Q.** And the residual activity ([17]; 10 µM TBID, panel of 76 protein kinases)?
**A.** The residual activity was “entirely suppressed”.

**Q.** What about the activity at 1 µM [17, 43] of the same molecule?
**A.** The activity at 1 µM was 31%.

**Q.** What about the activity at 1 µM [18] of the same molecule?
**A.** The activity at 1 µM was 82%.

**Q.** And the activity at 1 µM [19]?
**A.** Its activity at 1 µM is 100%.

**Q.** And the activity at 1 µM [20]?
**A.** The activity at 1 µM was 114%.

**Q.** What about the activity at 1 µM [21] of the same molecule?
**A.** The activity at 1 µM was 110%.

**Q.** And the activity at 1 µM [22]?
**A.** Its activity at 1 µM is 109%.

**Q.** What about the activity at 1 µM [23] of the same molecule?
**A.** Its activity at 1 µM is 119%.

**Q.** What about the activity at 1 µM [24] of the same molecule?
**A.** Its activity at 1 µM is 95%.

**Q.** And the activity at 1 µM [25]?
**A.** Its activity at 1 µM is 106%.

**Q.** What about the activity at 1 µM [26] of the same molecule?
**A.** The activity at 1 µM was 90%.

**Q.** What about the activity at 1 µM [27] of the same molecule?
**A.** Its activity at 1 µM is 83%.

**Q.** What about the activity at 1 µM [28] of the same molecule?
**A.** The activity at 1 µM was 90%.

**Q.** What about the activity at 1 µM [29] of the same molecule?
**A.** The activity at 1 µM was 97%.

**Q.** What about the activity at 1 µM [30] of the same molecule?
**A.** The activity at 1 µM was 102%.

**Q.** What about the activity at 1 µM [31] of the same molecule?
**A.** The activity at 1 µM was 116%.

**Q.** And the activity at 1 µM [32]?
**A.** The activity at 1 µM was 101%.

**Q.** What about the activity at 1 µM [33] of the same molecule?
**A.** Its activity at 1 µM is 104%.

**Q.** And the activity at 1 µM [34]?
**A.** Its activity at 1 µM is 104%.

**Q.** What about the activity at 1 µM [35] of the same molecule?
**A.** Its activity at 1 µM is 117%.

**Q.** What about the activity at 1 µM [36] of the same molecule?
**A.** Its activity at 1 µM is 98%.

**Q.** What about the activity at 1 µM [37] of the same molecule?
**A.** Its activity at 1 µM is 96%.

**Q.** What about the activity at 1 µM [38] of the same molecule?
**A.** The activity at 1 µM was 101%.

**Q.** What about the activity at 1 µM [39] of the same molecule?
**A.** The activity at 1 µM was 113%.

**Q.** What about the activity at 1 µM [40] of the same molecule?
**A.** The activity at 1 µM was 100%.

**Q.** What about the activity at 1 µM [41] of the same molecule?
**A.** The activity at 1 µM was 110%.
